The nature of assay [1]: Concentration required for 50% Inhibition of responses at cloned NR1A/2AB N-methyl-D-aspartate (NMDA) expressed in Xenopus oocytes.
Test in assay [2]: as above
This is another data set of the same source.

The structures appear in SMILES notation.

One may read the IC50 as the concentration that inhibits the measured activity by half. A lower IC50 goes with greater potency in that assay. The compound `Oc1ccc(C#CCN2CCC(Cc3ccccc3)CC2)cc1` [4-[3-(4-Benzyl-piperidin-1-yl)-prop-1-ynyl]-phenol] gave a half-maximal inhibitory concentration (IC50) in assay [1] of 0.1 µM. `C(#Cc1ccc2cc[nH]c2c1)CCN1CCC(Cc2ccccc2)CC1` [6-[4-(4-Benzyl-piperidin-1-yl)-but-1-ynyl]-1H-indole] gave a half-maximal inhibitory concentration (IC50) in assay [2] of 6.1 µM.

(Values after BindingDB's records for doi:10.1021/jm000023o (Cocensys, 2000).)
